From PMC5467912, “Asymmetric regulation of quorum-sensing receptors drives autoinducer-specific gene expression programs in Vibrio cholerae” (PLoS Genetics, 2017)
Several values for one entry are separate records, joined by “and”; a condition that tells them apart may be missing. Equal entries are not always repeated.

System: VCA0107-GFP
Experiment: Qrr4 regulation of VCA0107-GFP translational fusion, anhydrous tetracycline-inducible qrr4 (S4 Fig)
Assay type: cell-based, E. coli
Excerpt: We examined whether Qrr regulation of CqsS is direct or indirect using a CqsS-mKATE2 translational fusion in E. coli expressing inducible qrr4. We reasoned that, if CqsS production is controlled by Qrr4, repression of CqsS-mKATE2 should occur when Qrr4 is induced. We verified that our system works by showing that inducible Qrr4 is capable of repressing a previously-identified direct target, VCA0107-GFP [24]. However, no repression of CqsS-mKATE2 occurred following induction of Qrr4 (S4 Fig).
To assay qrr4 regulation of cqsS, the relative fluorescence of translational fusions (VCA0107B-GFP and CqsS-mKATE2) was measured in E. coli BWR1. E. coli carrying one of these plasmids also contained either an empty plasmid (pZA31) or pZA31 carrying anhydrous tetracycline-inducible qrr4. Qrr4-mediated repression of CqsS-mKATE2 was assessed. VCA0107-GFP is a known Qrr4-repressed target and was used as a positive control to show the system was functional. Overnight cultures were diluted 1:50 into fresh medium and aliquotted in triplicate into 96 well plates. […] OD600 and fluorescence were assessed using an Envision 2103 Multilabel Reader (Perkin Elmer).
Supplementary file pgen.1006826.s008.tiff: S4 Fig Qrr4 indirectly regulates cqsS. Fluorescence from plasmid-encoded VCA0107-GFP (circles) and CqsS-mKATE2 (squares) was measured in E. coli. Either an empty vector (pZA31-lucNB, black) or pZA31-lucNB carrying tetracycline-inducible qrr4 (pYS245, red) was present in each strain. VCA0107 encodes a type VI secretion system component that is regulated by Qrr4. Data represent two experiments conducted in triplicate. Error bars represent standard errors of the mean. (TIFF) Click here for additional data file.

## Cc1c2c(c(O)c3c(O)cccc13)C(=O)[C@]1(O)C(=O)C(C(N)=O)=C(O)[C@@H](N(C)C)[C@@H]1C2 [aTc]
pVC107 Qrr4, aTc 0.0976562 ng/ml (normalization point)
  Relative reporter signal, experimental averages: 1
pVC107 Qrr4, aTc 0.195312 ng/ml, normalized to 0.0976562 ng/ml
  Relative reporter signal, experimental averages: 1.025 and 0.934
pVC107 Qrr4, aTc 0.390625 ng/ml, normalized to 0.0976562 ng/ml
  Relative reporter signal, experimental averages: 1.044 and 1.031
pVC107 Qrr4, aTc 0.78125 ng/ml, normalized to 0.0976562 ng/ml
  Relative reporter signal, experimental averages: 1.069 and 1.04
pVC107 Qrr4, aTc 1.5625 ng/ml
  Relative reporter signal, single replicates: 0.9829 and 1.022 and 1.084 and 1.082 and 1.066 and 1.076
pVC107 Qrr4, aTc 1.5625 ng/ml, normalized to 0.0976562 ng/ml
  Relative reporter signal, experimental averages: 1.075 and 1.029
pVC107 Qrr4, aTc 3.125 ng/ml
  Relative reporter signal, single replicates: 0.9883 and 0.983 and 1.044 and 1.076 and 1.038 and 1.063
pVC107 Qrr4, aTc 3.125 ng/ml, normalized to 0.0976562 ng/ml
  Relative reporter signal, experimental averages: 1.059 and 1.005
pVC107 Qrr4, aTc 6.25 ng/ml
  Relative reporter signal, single replicates: 0.8986 and 0.9025 and 1.018 and 1.038 and 1.0458 and 1.143
pVC107 Qrr4, aTc 6.25 ng/ml, normalized to 0.0976562 ng/ml
  Relative reporter signal, experimental averages: 1.075 and 0.9397
pVC107 Qrr4, aTc 12.5 ng/ml
  Relative reporter signal, single replicates: 0.8122 and 0.8585 and 0.963 and 0.9294 and 0.9674 and 1.0333
pVC107 Qrr4, aTc 12.5 ng/ml, normalized to 0.0976562 ng/ml
  Relative reporter signal, experimental averages: 0.9767 and 0.8779
pVC107 Qrr4, aTc 25 ng/ml
  Relative reporter signal, single replicates: 0.8439 and 0.8636 and 0.8571 and 0.6965 and 0.6285 and 0.7212
pVC107 Qrr4, aTc 25 ng/ml, normalized to 0.0976562 ng/ml
  Relative reporter signal, experimental averages: 0.6821 and 0.8548
pVC107 Qrr4, aTc 50 ng/ml
  Relative reporter signal, single replicates: 0.8785 and 0.8105 and 0.7819 and 0.6416 and 0.6171 and 0.6104
pVC107 Qrr4, aTc 50 ng/ml, normalized to 0.0976562 ng/ml
  Relative reporter signal, experimental averages: 0.623 and 0.8236
pVC107 Qrr4, aTc 100 ng/ml
  Relative reporter signal, single replicates: 0.9222 and 0.8261 and 0.8207 and 0.6781 and 0.6674 and 0.7021
pVC107 Qrr4, aTc 100 ng/ml, normalized to 0.0976562 ng/ml
  Relative reporter signal, experimental averages: 0.6825 and 0.8563
pVC107 Qrr4, aTc 200 ng/ml
  Relative reporter signal, single replicates: 0.9029 and 0.8931 and 0.8706 and 0.7542 and 0.8262 and 0.8413
pVC107 Qrr4, aTc 200 ng/ml, normalized to 0.0976562 ng/ml
  Relative reporter signal, experimental averages: 0.8072 and 0.8889
pVC107 vector, aTc 0.0976562 ng/ml (normalization point)
  Relative reporter signal, experimental averages: 1
pVC107 vector, aTc 0.195312 ng/ml, normalized to 0.0976562 ng/ml
  Relative reporter signal, experimental averages: 1.1928 and 0.9542
pVC107 vector, aTc 0.390625 ng/ml, normalized to 0.0976562 ng/ml
  Relative reporter signal, experimental averages: 1.239 and 0.9963
pVC107 vector, aTc 0.78125 ng/ml
  Relative reporter signal, single replicates: 1.048 and 0.979 and 1.04 and 0.9279
pVC107 vector, aTc 0.78125 ng/ml, normalized to 0.0976562 ng/ml
  Relative reporter signal, experimental averages: 1.09 and 0.9823
pVC107 vector, aTc 1.5625 ng/ml
  Relative reporter signal, single replicates: 1.061 and 1.021 and 0.9897 and 0.9644 and 1.121 and 1.094
pVC107 vector, aTc 1.5625 ng/ml, normalized to 0.0976562 ng/ml
  Relative reporter signal, experimental averages: 1.092 and 0.9917
pVC107 vector, aTc 3.125 ng/ml
  Relative reporter signal, single replicates: 0.9263 and 0.9693 and 1.011 and 0.9278 and 1.0391 and 1.108
pVC107 vector, aTc 3.125 ng/ml, normalized to 0.0976562 ng/ml
  Relative reporter signal, experimental averages: 1.024 and 0.9695
pVC107 vector, aTc 6.25 ng/ml
  Relative reporter signal, single replicates: 0.9938 and 0.9834 and 0.9842 and 0.9532 and 1.085 and 1.105
pVC107 vector, aTc 6.25 ng/ml, normalized to 0.0976562 ng/ml
  Relative reporter signal, experimental averages: 1.061 and 0.9736
pVC107 vector, aTc 12.5 ng/ml
  Relative reporter signal, single replicates: 0.9967 and 0.9285 and 1.002 and 0.9658 and 1.022 and 1.055
pVC107 vector, aTc 12.5 ng/ml, normalized to 0.0976562 ng/ml
  Relative reporter signal, experimental averages: 1.025 and 0.9655
pVC107 vector, aTc 25 ng/ml
  Relative reporter signal, single replicates: 1.488 and 0.9589 and 0.9637 and 0.9614 and 1.035 and 1.177
pVC107 vector, aTc 25 ng/ml, normalized to 0.0976562 ng/ml
  Relative reporter signal, experimental averages: 1.233 and 0.9614
pVC107 vector, aTc 50 ng/ml
  Relative reporter signal, single replicates: 1.1512 and 1.025 and 1.023 and 0.9608 and 1.174 and 1.186
pVC107 vector, aTc 50 ng/ml, normalized to 0.0976562 ng/ml
  Relative reporter signal, experimental averages: 1.17 and 1.003
pVC107 vector, aTc 100 ng/ml
  Relative reporter signal, single replicates: 1.032 and 0.8995 and 0.9791 and 1.0414 and 1.344 and 1.183
pVC107 vector, aTc 100 ng/ml, normalized to 0.0976562 ng/ml
  Relative reporter signal, experimental averages: 1.1863 and 0.9733
